Measurements reported in patent publication US10377698B2, “Diphenethylamine derivatives which are inter alia useful as analgesics and method for their production” (UNIVERSITY OF INNSBRUCK, priority 2015, dated 2019).
Counter-ions that a name gives are not always drawn. Like-named read-outs stand apart in the source and are kept apart here.

Assays:
human MOR = target: T1, human MOR (Homo sapiens, UniProt P35372); test: Opioid receptor binding assay, competition binding, CHO cell membranes (MOR); conditions: membranes from CHO cells stably expressing human MOR; read-out: Affinity Ki MOR
T1 construct: expressed in transfected cells; host or cells: CHO cells (membranes)
T1 sequence (P35372 whole entry): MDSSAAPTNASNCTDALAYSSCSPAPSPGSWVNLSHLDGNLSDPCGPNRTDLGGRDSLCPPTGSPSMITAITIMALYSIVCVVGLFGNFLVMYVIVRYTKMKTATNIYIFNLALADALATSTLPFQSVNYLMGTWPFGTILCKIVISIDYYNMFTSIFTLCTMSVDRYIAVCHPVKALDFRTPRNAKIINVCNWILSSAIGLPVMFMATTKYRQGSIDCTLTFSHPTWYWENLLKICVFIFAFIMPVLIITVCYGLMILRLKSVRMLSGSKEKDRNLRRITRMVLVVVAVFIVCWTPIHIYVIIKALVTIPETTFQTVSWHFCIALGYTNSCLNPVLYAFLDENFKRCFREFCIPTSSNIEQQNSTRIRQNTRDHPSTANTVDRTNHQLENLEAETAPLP

human DOR = target: T2, human DOR (Homo sapiens, UniProt P41143); test: Opioid receptor binding assay, competition binding, CHO cell membranes (DOR); conditions: membranes from CHO cells stably expressing human DOR; read-out: Affinity Ki DOR
T2 construct: expressed in transfected cells; host or cells: CHO cells (membranes)
T2 sequence (P41143 whole entry): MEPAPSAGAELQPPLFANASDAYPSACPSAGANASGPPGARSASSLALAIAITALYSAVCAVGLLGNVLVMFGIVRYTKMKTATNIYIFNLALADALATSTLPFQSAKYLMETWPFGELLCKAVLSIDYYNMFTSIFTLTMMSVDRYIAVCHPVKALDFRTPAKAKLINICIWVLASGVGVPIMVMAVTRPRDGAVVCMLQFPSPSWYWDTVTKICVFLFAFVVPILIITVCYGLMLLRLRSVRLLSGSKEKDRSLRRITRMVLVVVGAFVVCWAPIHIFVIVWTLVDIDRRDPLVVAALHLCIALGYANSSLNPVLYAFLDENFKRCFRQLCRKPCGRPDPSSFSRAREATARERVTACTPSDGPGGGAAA

[1] = parameters: species or system mice; conditions: mouse, in vivo, sc
KOR [2] = target: T3, KOR (Homo sapiens, UniProt P41145); test: biochemical; assay type: binding; parameters: expressed in transfected cells; host or cells: CHO cells (membranes)
T3 sequence (P41145 whole entry): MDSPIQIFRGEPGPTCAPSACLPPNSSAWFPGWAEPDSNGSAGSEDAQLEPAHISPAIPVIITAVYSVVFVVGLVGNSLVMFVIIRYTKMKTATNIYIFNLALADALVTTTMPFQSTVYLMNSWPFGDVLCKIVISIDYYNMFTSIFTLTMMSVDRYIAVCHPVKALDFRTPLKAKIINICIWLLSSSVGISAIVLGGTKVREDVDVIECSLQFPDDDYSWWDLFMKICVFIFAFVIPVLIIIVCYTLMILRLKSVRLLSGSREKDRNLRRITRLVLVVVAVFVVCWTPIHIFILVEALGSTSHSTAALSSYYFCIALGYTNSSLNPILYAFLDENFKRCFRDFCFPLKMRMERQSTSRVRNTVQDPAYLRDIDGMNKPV

KOR [3] = target: T3, KOR; test: biochemical; assay type: biochemical; parameters: expressed in transfected cells; host or cells: CHO cells (membranes); conditions: for Emax: read-out: [35S]GTPγS binding KOR Emax
KOR [4] = target: T3, KOR; test: KOR-mediated β-arrestin2 recruitment, DiscoveRx PathHunter assay, U2OS-hMOR-β-arrestin2 cells; assay type: cell-based; conditions: for Emax: read-out: β-arrestin2 recruitment assay Emax
[5] = read-out: [35S]GTPγS binding KOR EC50

For `Oc1cccc(CCN(CCc2cccc(O)c2)CC2CCC2)c1` [Compound 12, 3,3′-[2,2′-(Cyclobutylmethylazanediyl)bis(ethane-2,1-diyl)]diphenol], the Ki (human MOR) was 230 nM, the Ki (human DOR) was 4.18 µM and the ED50 writhing test [1] was 1.59 mg/kg, s.c. The “Relative analgesic potency to HS665” value [1] was 1.2, the “Relative analgesic potency to HS666” value [1] was 2.0 and the “Relative analgesic potency to U50,488” value [1] was 1.0. The Ki (KOR [2]) was 0.34 nM, the EC50 (KOR [3]) was 5.51 nM and the Emax (KOR [3]) was 71.4%.

For `Oc1cccc(CCN(CCc2ccccc2)Cc2ccccc2)c1` [Compound 4, 3-[2-[Benzyl(phenethyl)amino]ethyl]phenol], the Ki (human MOR) was 463 nM, the Ki (human DOR) was 1.86 µM and the Bias factor (KOR [4]) was 1172. The EC50 (KOR [4]; DiscoveRx PathHunter assay, U2OS-hMOR cells, read-out: β-arrestin2 recruitment assay EC50) was 4450 nM, the Emax (KOR [4]) was 37.3% and the “Relative analgesic potency to HS665” value [1] was 1.6. For the same molecule, the “Relative analgesic potency to HS666” value [1] was 2.7, the “Relative analgesic potency to U50,488” value [1] was 1.3 and the melting point was 177 to 178 °C. The Ki (KOR [2]; read-out: Affinity Ki KOR) was 0.71 nM, the EC50 (KOR [3]; [5]) was 4.65 nM and the Emax (KOR [3]) was 79.5%.

With `Oc1cccc(CCN(CCc2cccc(O)c2F)CC2CCC2)c1` [Compound 53, 3-[2-[(Cyclobutylmethyl)(3-hydroxyphenethyl)amino]ethyl]-2-fluorophenol] the Ki (human MOR) was 548 nM, the Ki (human DOR) was 4.75 µM and the Bias factor (KOR [4]) was 263. For the same molecule, the EC50 (KOR [4]) was 529 nM, the Emax (KOR [4]) was 41.2% and the Ki (KOR [2]; read-out: Affinity Ki KOR) was 0.12 nM. It also gave an EC50 (KOR [3]; [5]) of 1.49 nM and an Emax (KOR [3]) of 53.1%.

For `CC(C)CCN(CCc1ccccc1)CCc1cccc(O)c1`, the melting point was 149 to 150 °C.

Molecule `Oc1cccc(CCN(CCc2ccccc2)CC2CCCCC2)c1F` [Compound 51, 3-[2-[(Cyclohexylmethyl)(phenethyl)amino]ethyl]-2-fluorophenol] has a Ki (human MOR) of 543 nM, a Bias factor (KOR [4]) of 1514 and an EC50 (KOR [4]) of 4180 nM. The Emax (KOR [4]) was 48.4%, the ED50 writhing test [1] was 1.20 mg/kg, s.c and the “Relative analgesic potency to HS665” value [1] was 1.6. For the same molecule, the “Relative analgesic potency to HS666” value [1] was 2.7, the “Relative analgesic potency to U50,488” value [1] was 1.3 and the melting point was 129 to 130 °C. The Ki (KOR [2]) was 0.046 nM, the EC50 (KOR [3]; [5]) was 2.77 nM and the Emax (KOR [3]) was 84.6%.

`CCCCCCN(CCc1cccc(O)c1)CCc1cccc(O)c1` showed a melting point of 75 to 76 °C.

`Cl.Oc1cccc(CCN(CCc2ccccc2)CC2CC2)c1` [HS666, 3-[2-[(Cyclopropylmethyl)(phenethyl)amino]ethyl]phenol Hydrochloride, reference compound] showed a Ki (human MOR) of 826 nM, a Ki (human DOR) greater than 10 µM and a Bias factor (KOR [4]) of 18. For the same molecule, the EC50 (KOR [4]) was 502 nM, the Emax (KOR [4]) was 25% and the ED50 writhing test [1] was 3.23 mg/kg, s.c. The “Relative analgesic potency to HS665” value [1] was 0.6, the “Relative analgesic potency to HS666” value [1] was 1.0 and the “Relative analgesic potency to U50,488” value [1] was 0.5. It also gave a Ki (KOR [2]; read-out: Affinity Ki KOR) of 5.9 nM, an EC50 (KOR [3]; [5]) of 35 nM and an Emax (KOR [3]) of 53.4%.

For `CCCCN(CCc1cccc(O)c1)CCc1cccc(O)c1`, the melting point was 62 to 64 °C.

`Nc1cccc(CCN(CCc2ccccc2)CC2CCC2)c1` (as salt: hydrochloride) gave a melting point of 68 to 70 °C.

For `CCCCCN(CCc1cccc(O)c1)CCc1cccc(O)c1`, the melting point was 70 to 72 °C.

Work on `Oc1cccc(CCN(CCc2ccccc2)Cc2ccccc2)c1F` yielded a melting point of 126 to 128 °C.

In the case of `CC(C)CCN(CCc1cccc(O)c1)CCc1cccc(O)c1`, the melting point is reported as 71 to 72 °C.

`Oc1cccc(CCN(CCc2ccccc2)C2CCC2)c1` gave a melting point of 100 to 101 °C.

Work on `CCCCN(CCc1ccc(O)cc1)CCc1cccc(O)c1` yielded a melting point of 65 to 68 °C.

In the case of `Oc1cccc(CCN(CCc2ccccc2)CC2CCC2)c1F` [Compound 49, 3-[2-[(Cyclobutylmethyl)(phenethyl)amino]ethyl]-2-fluorophenol], the Ki (human MOR) is reported as 414 nM, the Bias factor (KOR [4]) is reported as 82 and the EC50 (KOR [4]) is reported as 859 nM. For the same molecule, the Emax (KOR [4]) was 57.5%, the Ki (KOR [2]) was 0.022 nM and the EC50 (KOR [3]; [5]) was 6.9 nM. It also gave an Emax (KOR [3]) of 66.1%.

Molecule `Oc1ccc(CCN(CCc2cccc(O)c2)CC2CCCCC2)cc1` has a melting point of 155 to 157 °C.

`Oc1cccc(CCN(CCc2cccc(O)c2)CC2CC2)c1` gave a melting point of 106 to 107 °C.

Molecule `Oc1cccc(CCN(CCc2ccccc2)CC2CCCCC2)c1` [Compound 3, 3-[2-[(Cyclohexylmethyl)(phenethyl)amino]ethyl]phenol] has a Ki (human MOR) of 436 nM, a Ki (human DOR) of 2.14 µM and a Bias factor (KOR [4]) of 2909. For the same molecule, the EC50 (KOR [4]) was 1360 nM, the Emax (KOR [4]) was 72.2% and the ED50 writhing test [1] was 0.97 mg/kg, s.c. For the same molecule, the “Relative analgesic potency to HS665” value [1] was 2.0, the “Relative analgesic potency to HS666” value [1] was 3.3 and the “Relative analgesic potency to U50,488” value [1] was 1.6. It also gave a melting point of 150 to 151 °C, a Ki (KOR [2]) of 0.088 nM and an EC50 (KOR [3]; [5]) of 0.23 nM. The Emax (KOR [3]) was 61.9%.

With `C=CCN(CCc1ccc(O)cc1)CCc1cccc(O)c1` the melting point was 103 to 105 °C.

`Oc1cccc(CCN(CCc2cccc(O)c2)CC2CCCC2)c1` [Compound 39, 3,3′-[2,2′-(Cyclopentylmethylazanediyl)bis(ethane-2,1-diyl)]diphenol] showed a Ki (human MOR) of 702 nM, a melting point of 113 °C and a Ki (KOR [2]) of 0.38 nM. The EC50 (KOR [3]) was 14.2 nM and the Emax (KOR [3]) was 83.6%.

`COc1cccc(CCN(CCc2ccc(O)cc2)CC2CCCC2)c1` [Compound 27, 4-[2-[(Cyclopentylmethyl)(3-methoxyphenethyl)amino]ethyl]phenol] gave a Ki (human MOR) of 158 nM, a Ki (human DOR) of 6.24 µM and a melting point of 74 to 77 °C. The Ki (KOR [2]) was 0.17 nM, the EC50 (KOR [3]) was 22.8 nM and the Emax (KOR [3]) was 73.6%.

With `Oc1cccc(CCN(CCc2cccc(O)c2)CC2CCCCC2)c1` [Compound 29, 3,3′-[2,2′-(Cyclohexylmethylazanediyl)bis(ethane-2,1-diyl)]diphenol] the Ki (human MOR) was 219 nM, the melting point was 157 to 158 °C and the Ki (KOR [2]) was 0.18 nM. For the same molecule, the EC50 (KOR [3]) was 10.6 nM and the Emax (KOR [3]) was 92.2%.

For `Oc1ccc(CCN(CCc2ccccc2)CC2CCCC2)cc1`, the melting point was 150 to 153 °C.

In the case of `Oc1cccc(CCN(CCc2ccccc2)CC2CCC2)c1` [HS665, reference compound], the Ki (human DOR) is reported as greater than 10 µM and the ED50 writhing test [1] is reported as 1.91 mg/kg, s.c.

`Oc1ccc(CCN(CCc2cccc(O)c2)CC2CC2)cc1` showed a melting point of 104 to 105 °C.

In the case of `C=CCN(CCc1cccc(O)c1)CCc1cccc(O)c1`, the melting point is reported as 104 to 106 °C.

`Oc1cccc(CCN(CCc2ccccc2)CC2CCCC2)c1` [Compound 2, 3-[2-[(Cyclopentylmethyl)(phenethyl)amino]ethyl]phenol] showed a Ki (human DOR) of 5.21 µM, an EC50 (KOR [4]) of 1340 nM and an Emax (KOR [4]) of 83%. For the same molecule, the ED50 writhing test [1] was 0.54 mg/kg, s.c, the “Relative analgesic potency to HS665” value [1] was 3.5 and the “Relative analgesic potency to HS666” value [1] was 6.0. The “Relative analgesic potency to U50,488” value [1] was 2.9, the melting point was 154 to 156 °C and the EC50 (KOR [3]) was 4.19 nM. It also gave an Emax (KOR [3]) of 72.9%.
